Experimental data as given in patent publication US20080280879A1, “SUBSTITUTED HETEROCYCLIC DERIVATIVES AND THEIR PHARMACEUTICAL USE AND COMPOSITIONS” (priority 2007, published 2008).
Converted amounts (≈) assume the structure as drawn.

Experiments:
Assay type in all cases: cell-based, Staphylococcus aureus
[1] = system: Staph aureus 2811; experiment: MIC, microtiter broth dilution (CLSI M7-A7), Assay 1, Table 12 column D, no serum; details: for MIC: Staphylococcus aureus, 2811, Staph aureus 2811, Assay 1, no serum; for MIC, column D: Staph aureus 2811, Assay 1, no serum
In short: (§1)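 Broth microdilution in microtiter trays per CLSI M7-A7, interpreted per M100-S16; MIC (μg/ml) is the lowest concentration preventing visible growth. Serum condition used Mueller-Hinton Broth with 50% pooled inactivated human serum. Repeated runs reported as geometric mean.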

[2] = system: Staph aureus 1095 MRSA; experiment: MIC, microtiter broth dilution (CLSI M7-A7), Assay 1, Table 12 column A, no serum; details: Assay 1, no serum; for MIC: Staphylococcus aureus, MRSA
In short: as §1

[3] = system: Staph aureus 2812; experiment: MIC, microtiter broth dilution (CLSI M7-A7), Assay 1, Table 12 column E, no serum; details: for MIC: Staphylococcus aureus, 2812, Staph aureus 2812, Assay 1, no serum; for MIC, column E: Staph aureus 2812, Assay 1, no serum
In short: as §1

[4] = system: Staph aureus 1146; experiment: MIC in Mueller-Hinton Broth with 50% pooled inactivated human serum, Assay 1, Table 12; details: for MIC: Staphylococcus aureus, 1146, Staph aureus 1146, Assay 1, 50% human serum, read-out: MIC, column C; for MIC, column C: Staph aureus 1146, Assay 1, 50% human serum
In short: as §1

[5] = system: Staph aureus 1146; experiment: MIC, microtiter broth dilution (CLSI M7-A7), Assay 1, Table 12 column B, no serum; details: for MIC: Staphylococcus aureus, 1146, Staph aureus 1146, Assay 1, no serum; for MIC, column B: Staph aureus 1146, Assay 1, no serum
In short: as §1

MIC [1] [µg/mL]	MIC [2] [µg/mL]	MIC [3] [µg/mL]	MIC [4] [µg/mL]	MIC [5] [µg/mL]	MIC, column C [4] [µg/mL]	MIC, column D [1] [µg/mL]	MIC, column A [2] [µg/mL]	MIC, column E [3] [µg/mL]	MIC, column B [5] [µg/mL]	SMILES
> 64	> 64	> 64	> 64	> 64						CCOCCc1noc(C2CC(N3CC[C@@H](CCC(O)c4ccnc5ccc(OC)cc45)[C@@H](C(=O)O)C3)C2)n1 (stereo partly drawn) [Example 168, (3R,4R)-1-{3-[3-(2-ethoxyethyl)-1,2,4-oxadiazol-5-yl]cyclobutyl}-4-[3-hydroxy-3-(6-methoxyquinolin-4-yl)propyl]piperidine-3-carboxylic acid]
> 64	> 64	> 64	> 64	> 64						COCc1noc(C2CC(N3CC[C@@H](CCC(O)c4ccnc5ccc(OC)cc45)[C@@H](C(=O)O)C3)C2)n1 (stereo partly drawn) [Example 169, (3R,4R)-4-[3-hydroxy-3-(6-methoxyquinolin-4-yl)propyl]-1-{3-[3-(methoxymethyl)-1,2,4-oxadiazol-5-yl]cyclobutyl}piperidine-3-carboxylic acid]
> 64	> 64	> 64	> 64	> 64						COc1ccc2nccc(C(O)CC[C@@H]3CCN(C4CC(c5nc(CC6CC6)no5)C4)C[C@@H]3C(=O)O)c2c1 (stereo partly drawn) [Example 170, (3R,4R)-1-{3-[3-(cyclopropylmethyl)-1,2,4-oxadiazol-5-yl]cyclobutyl}-4-[3-hydroxy-3-(6-methoxyquinolin-4-yl)propyl]piperidine-3-carboxylic acid]
8 (≈ 16.7 µM)	16 (≈ 33.4 µM)	8 (≈ 16.7 µM)	16 (≈ 33.4 µM)	8 (≈ 16.7 µM)						COc1ccc2nccc(C(O)CC[C@@H]3CCN(C4CC(c5cc(C)on5)C4)C[C@@H]3C(=O)O)c2c1 (stereo partly drawn) [Example 171, (3R,4R)-4-[3-Hydroxy-3-(6-methoxy-quinolin-4-yl)-propyl}-1-[3-(5-methyl-isoxazol-3-yl)-cyclobutyl]-piperidine-3-carboxylic acid]
1 (≈ 1.91 µM)	4 (≈ 7.65 µM)	2 (≈ 3.83 µM)	32 (≈ 61.2 µM)	2 (≈ 3.83 µM)						COc1ccc(F)c(C2CC(N3CC[C@@H](CC[C@H](O)c4ccnc5ccc(OC)cc45)[C@@H](C(=O)O)C3)C2)c1 (stereo partly drawn) [Example 172, (3R,4R)-1-[3-(2-fluoro-5-methoxyphenyl)cyclobutyl]-4-[(3S)-3-hydroxy-3-(6-methoxyquinolin-4-yl)propyl]piperidine-3-carboxylic acid]
					32.0 (≈ 65.5 µM)	2.00 (≈ 4.09 µM)	8.00 (≈ 16.4 µM)	4.00 (≈ 8.19 µM)	2.00 (≈ 4.09 µM)	COc1ccc2nccc(C(O)CC[C@@H]3CCN(CC4CC(c5ccccc5)C4)C[C@@H]3C(=O)O)c2c1 (stereo partly drawn) [Example 178, (3R,4R)-4-[3-hydroxy-3-(6-methoxyquinolin-4-yl)propyl]-1-[(3-phenylcyclobutyl)methyl]piperidine-3-carboxylic acid]
0.25 (≈ 0.477 µM)	2 (≈ 3.81 µM)	0.5 (≈ 0.953 µM)	8 (≈ 15.2 µM)	0.25 (≈ 0.477 µM)						COc1ccc2nccc(C(O)CC[C@@H]3CCN(C4CCC(c5cc(F)ccc5F)C4)C[C@@H]3C(=O)O)c2c1 (stereo partly drawn) [Example 183, (3R,4R)-1-[3-(2,5-difluorophenyl)cyclopentyl]-4-[3-hydroxy-3-(6-methoxyquinolin-4-yl)propyl]piperidine-3-carboxylic acid]

Second part, the compound before the results:

SMILES	MIC [1] [µg/mL]	MIC [2] [µg/mL]	MIC [3] [µg/mL]	MIC [4] [µg/mL]	MIC [5] [µg/mL]	MIC, column C [4] [µg/mL]	MIC, column D [1] [µg/mL]	MIC, column A [2] [µg/mL]	MIC, column E [3] [µg/mL]	MIC, column B [5] [µg/mL]
COc1ccc2ncc(F)c(CCCC3(C(=O)O)CCN(C4CC(c5ccccc5)C4)C3)c2c1 (centres unmarked) [Example 173, 3-[3-(3-fluoro-6-methoxyquinolin-4-yl)propyl]-1-(3-phenylcyclobutyl)pyrrolidine-3-carboxylic acid]	< 0.0625	< 0.0625	< 0.0625	8 (≈ 17.3 µM)	< 0.0625					
COc1ccc2ncc(F)c(CCCC3(C(=O)O)CCN(C4CC(c5c(F)cccc5F)C4)C3)c2c1 (centres unmarked) [Example 174, 1-[3-(2,6-difluorophenyl)cyclobutyl]-3-[3-(3-fluoro-6-methoxyquinolin-4-yl)propyl]pyrrolidine-3-carboxylic acid]	< 0.0625	< 0.0625	< 0.0625		< 0.0625	4.00 (≈ 8.02 µM)				
COc1ccc2ncc(Cl)c(C(O)CCC3(C(=O)O)CCN(C4CC(c5ccccc5)C4)C3)c2c1 (centres unmarked) [Example 175, 3-[3-(3-chloro-6-methoxyquinolin-4-yl)-3-hydroxypropyl]-1-(3-phenylcyclobutyl)pyrrolidine-3-carboxylic acid]	< 0.0625	0.5 (≈ 1.01 µM)	< 0.0625	4 (≈ 8.08 µM)	< 0.0625					
COc1ccc2ncc(Cl)c(C(O)CCC3(C(=O)O)CCN(C4CC(c5c(F)cccc5F)C4)C3)c2c1 (centres unmarked) [Example 176, 3-[3-(3-chloro-6-methoxyquinolin-4-yl)-3-hydroxypropyl]-1-[3-(2,6-difluorophenyl)cyclobutyl] pyrrolidine-3-carboxylic acid]	< 0.0625	0.125 (≈ 0.235 µM)	< 0.0625	4 (≈ 7.53 µM)	< 0.0625					
COc1ccc2nc(C)cc(C(O)CC[C@@H]3CCN(C4CC(c5c(F)cccc5F)C4)C[C@@H]3C(=O)O)c2c1 (stereo partly drawn) [Example 179, (3R,4R)-1-[3-(2,6-difluorophenyl)cyclobutyl]-4-[3-hydroxy-3-(6-methoxy-2-methylquinolin-4-yl)propyl] piperidine-3-carboxylic acid]	1 (≈ 1.91 µM)	2 (≈ 3.81 µM)	1 (≈ 1.91 µM)	32 (≈ 61 µM)	1 (≈ 1.91 µM)					
COc1ccc2ncc(F)c(CCCC3(C(=O)O)CCN(C4CC(c5c(F)cccc5F)C4)C3)c2c1 (centres unmarked) [Example 180, 1-[3-(2,6-difluorophenyl)cyclobutyl]-3-[3-(3-fluoro-6-methoxyquinolin-4-yl)propyl]pyrrolidine-3-carboxylic acid]						16.0 (≈ 32.1 µM)	<0.0625	<0.0625	<0.0625	<0.0625
COc1ccc2ncc(F)c(CCCC3(C(=O)O)CCN(C4CC(c5c(F)cccc5F)C4)C3)c2c1 (centres unmarked) [Example 181, 1-[3-(2,6-difluorophenyl)cyclobutyl]-3-[3-(3-fluoro-6-methoxyquinolin-4-yl)propyl]pyrrolidine-3-carboxylic acid]						16.0 (≈ 32.1 µM)	<0.0625	<0.0625	<0.0625	<0.0625
COc1ccc2ncc(F)c(C(O)CC[C@@H]3CCN(C4CC(c5c(F)cccc5F)C4)C[C@@H]3C(=O)O)c2n1 (stereo partly drawn) [Example 182, (3R,4R)-1-[3-(2,6-difluorophenyl)cyclobutyl]-4-[3-(3-fluoro-6-methoxy-1,5-naphthyridin-4-yl)-3-hydroxypropyl]piperidine-3-carboxylic acid]	< 0.0625	< 0.0625	< 0.0625		< 0.0625	1.00 (≈ 1.89 µM)				
COc1ccc2ncc(Cl)c(C(O)CCC3(C(=O)O)CCN(C4CC(c5cc(F)ccc5F)C4)C3)c2c1 (centres unmarked) [Example 184, 3-[3-(3-chloro-6-methoxyquinolin-4-yl)-3-hydroxypropyl]-1-[3-(2,5-difluorophenyl)cyclobutyl] pyrrolidine-3-carboxylic acid]	< 0.0625	0.25 (≈ 0.471 µM)	< 0.0625	8 (≈ 15.1 µM)	< 0.0625					
